Measured values as given in patent US20240217982A1, “KRAS INHIBITORS” (Bristol-Myers Squibb Company, priority 2021, published 2024).

Legend:
KRAS G12D [1] = target: T1, KRAS G12D (Homo sapiens (Human), UniProt P01116, G12D); test: KRAS G12D Nucleotide Exchange Assay (HTRF); format: biochemical; conditions: recombinant GDP-loaded KRAS G12D (20 nM), BIODIPY-labeled GDP (400 nM), recombinant SOS (10 nM), HTRF signal
Method: Recombinant GDP-loaded KRAS G12D (20 nM) was treated with compound at room temperature for 20 minutes in assay buffer (10 mM Hepes pH 7.4, 150 mM NaCl, 5 mM MgCl2, 0.0025% Igepal-CA630, 0.05% BSA, 1 mM DTT, 0.5 nM SA-Tb). BIODIPY-labeled GDP (400 nM) and recombinant SOS (10 nM) were added, and the reaction was incubated for 30 minutes.

KRAS G12D [2] = target: T1, KRAS G12D; test: KRAS G12D RAF Disruption Assay (HTRF); format: biochemical; conditions: recombinant GMPPNP-loaded KRAS G12D (5 nM), GST-RAF1 RBD (9 nM), HTRF signal
Method: Recombinant GMPPNP-loaded KRAS G12D (5 nM) was treated with compound at room temperature for 20 minutes in assay buffer (50 mM Tris pH 7.5, 100 mM NaCl, 1 mM MgCl2, 1 mM DTT, 100 ug/mL BSA).

T1 sequence (P01116-2 other isoform, or with tags, fused parts or gaps G12D): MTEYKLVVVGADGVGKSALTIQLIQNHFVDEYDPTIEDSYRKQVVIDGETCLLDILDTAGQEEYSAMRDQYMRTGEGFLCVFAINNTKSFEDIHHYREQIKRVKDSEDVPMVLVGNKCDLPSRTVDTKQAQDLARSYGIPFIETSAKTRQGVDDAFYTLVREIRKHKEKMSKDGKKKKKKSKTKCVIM

Row | KRASG12D Nucleotide Exchange Assay (IC50, µM) (KRAS G12D [1]) | KRASG12D RAF Disruption Assay (IC50, µM) (KRAS G12D [2]) | Structure (SMILES)
1 | 0.03 µM | 2.0 µM | CN1CCC[C@@]2(COc3nc(N4CC[C@H]5CC[C@@H](C4)N5)c4ccc(-c5cc(O)cc6cccc(F)c56)c(F)c4n3)CCC[C@@H]12 [Example 9-2, 4-(2-{[(4aS,7aR)-1-methyl-octahydro-1H-cyclopenta[b]pyridin-4a-yl]methoxy}-4-[(1S,6R)-3,9-diazabicyclo[4.2.1]nonan-3-yl]-8-fluoroquinazolin-7-yl)-5-fluoronaphthalen-2-ol]
2 | 2.0 µM | 54.4 µM | CCc1cccc2cccc(-c3ccc4c(N5CC[C@H]6CC[C@@H](C5)N6)nc(OC[C@@]56CCCN5C[C@H](F)C6)nc4c3F)c12 [Example 11-8, 2-{[(2R,7aS)-2-fluoro-hexahydro-1H-pyrrolizin-7a-yl]methoxy}-4-[(1S,6R)-3,9-diazabicyclo[4.2.1]nonan-3-yl]-7-(8-ethylnaphthalen-1-yl)-8-fluoroquinazoline]
3 | 0.06 µM | 5.1 µM | Oc1cc(-c2ccc3c(N4CC[C@H]5CC[C@@H](C4)N5)nc(OC[C@@]45CCCN4C[C@H](F)C5)nc3c2F)c2ccccc2c1 [Example 11-7, 4-(2-{[(2R,7aS)-2-fluoro-hexahydro-1H-pyrrolizin-7a-yl]methoxy}-4-[(1S,6R)-3,9-diazabicyclo[4.2.1]nonan-3-yl]-8-fluoroquinazolin-7-yl)naphthalen-2-ol]
4 | 0.01 µM | 2.7 µM | Cc1cc(N)nc(-c2c(Cl)cc3c(N4CC[C@H]5CC[C@@H](C4)N5)nc(OCC4(CN5CCCC(F)C5)CC4)nc3c2F)c1C(F)(F)F (stereo partly drawn) [Example 10-3, 6-{6-chloro-4-[(1S,6R)-3,9-diazabicyclo[4.2.1]nonan-3-yl]-8-fluoro-2-({1-[(3-fluoropiperidin-1-yl)methyl]cyclopropyl}methoxy)quinazolin-7-yl}-4-methyl-5-(trifluoromethyl)pyridin-2-amine]
5 | 0.05 µM | 3.0 µM | CCc1cccc2cc(O)cc(-c3ccc4c(N5CC[C@H]6CC[C@@H](C5)N6)nc(OC[C@]56CCC[C@H]5N(C)CCC6)nc4c3F)c12 [Example 9-3, 4-(2-{[(4aS,7aR)-1-methyl-octahydro-1H-cyclopenta[b]pyridin-4a-yl]methoxy}-4-[(1S,6R)-3,9-diazabicyclo[4.2.1]nonan-3-yl]-8-fluoroquinazolin-7-yl)-5-ethylnaphthalen-2-ol]
6 | 0.06 µM | 12.1 µM | Cc1cc(N)nc(-c2c(Cl)cc3c(N4CC[C@H]5CC[C@@H](C4)N5)nc(OCC4(CN5CCOCC5)CC4)nc3c2F)c1C(F)(F)F [Example 10-7, 6-{6-chloro-4-[(1S,6R)-3,9-diazabicyclo[4.2.1]nonan-3-yl]-8-fluoro-2-({1-[(morpholin-4-yl)methyl]cyclopropyl}methoxy)quinazolin-7-yl}-4-methyl-5-(trifluoromethyl)pyridin-2-amine]
7 | 0.2 µM | >100 µM | Cc1cc(N)nc(-c2c(Cl)cc3c(N4CC[C@H]5CC[C@@H](C4)N5)nc(OC[C@@]45CCCN4C[C@@H](OC(F)F)C5)nc3c2F)c1C(F)(F)F (single isomer, unassigned) [Example 10-6]
8 | 0.01 µM | 1.0 µM | Oc1cc(-c2ccc3c(N4CC[C@H]5CC[C@@H](C4)N5)nc(OC[C@@]45CCCN4C[C@H](F)C5)nc3c2F)c2c(F)cccc2c1 [Example 11-2, 4-(2-{[(2R,7aS)-2-fluoro-hexahydro-1H-pyrrolizin-7a-yl]methoxy}-4-[(1S,6R)-3,9-diazabicyclo[4.2.1]nonan-3-yl]-8-fluoroquinazolin-7-yl)-5-fluoronaphthalen-2-ol]

Continued, compound first:

Row | Structure (SMILES) | KRASG12D Nucleotide Exchange Assay (IC50, µM) (KRAS G12D [1]) | KRASG12D RAF Disruption Assay (IC50, µM) (KRAS G12D [2])
9 | Cc1cc(N)nc(-c2c(Cl)cc3c(N4CC[C@H]5CC[C@@H](C4)N5)nc(OC[C@]45CCC[C@H]4N(C)CCC5)nc3c2F)c1C(F)(F)F [Example 3, 6-(2-{[(4aS,7aR)-1-methyl-octahydro-1H-cyclopenta[b]pyridin-4a-yl]methoxy}-6-chloro-4-[(1S,6R)-3,9-diazabicyclo[4.2.1]nonan-3-yl]-8-fluoroquinazolin-7-yl)-4-methyl-5-(trifluoromethyl)pyridin-2-amine] | <0.002 µM | 0.05 µM
10 | Oc1cc(-c2c(Cl)cc3c(N4CC[C@H]5CC[C@@H](C4)N5)nc(OC[C@@]45CCCN4C[C@H](F)C5)nc3c2F)c2c(F)cccc2c1 (single isomer, unassigned) [Example 8-6] | 0.07 µM | 3.6 µM
11 | Cc1cc(N)nc(-c2c(Cl)cc3c(N4CC[C@H]5CC[C@@H](C4)N5)nc(OC[C@]45CCCN4C[C@H](F)C5)nc3c2F)c1C(F)(F)F [Example 4-3, 6-(2-{[(2R,7aR)-2-fluoro-hexahydro-1H-pyrrolizin-7a-yl]methoxy}-6-chloro-4-[(1S,6R)-3,9-diazabicyclo[4.2.1]nonan-3-yl]-8-fluoroquinazolin-7-yl)-4-methyl-5-(trifluoromethyl)pyridin-2-amine] | 0.02 µM | 0.52 µM
12 | Cc1cc(N)nc(-c2c(Cl)cc3c(N4CC[C@H]5CC[C@@H](C4)N5)nc(OC[C@]45CCCN4C[C@@H](F)C5)nc3c2F)c1C(F)(F)F [Example 4-2, 6-(2-{[(2S,7aR)-2-fluoro-hexahydro-1H-pyrrolizin-7a-yl]methoxy}-6-chloro-4-[(1S,6R)-3,9-diazabicyclo[4.2.1]nonan-3-yl]-8-fluoroquinazolin-7-yl)-4-methyl-5-(trifluoromethyl)pyridin-2-amine] | 0.006 µM | 0.43 µM
13 | CCc1cccc2cc(O)cc(-c3c(Cl)cc4c(N5CC[C@H]6CC[C@@H](C5)N6)nc(OC[C@]56CCCN5C[C@@H](F)C6)nc4c3F)c12 (single isomer, unassigned) [Example 8-3] | 0.07 µM | 17.3 µM
14 | CO[C@@H]1C[C@@H](COc2nc(N3CC[C@H]4CC[C@@H](C3)N4)c3cc(Cl)c(-c4nc(N)cc(C)c4C(F)(F)F)c(F)c3n2)N(C)C1 [Example 4-4, 6-{6-chloro-4-[(1S,6R)-3,9-diazabicyclo[4.2.1]nonan-3-yl]-8-fluoro-2-{[(2S,4R)-4-methoxy-1-methylpyrrolidin-2-yl]methoxy}quinazolin-7-yl}-4-methyl-5-(trifluoromethyl)pyridin-2-amine] | 0.010 µM | 1.81 µM
15 | Cc1cc(N)nc(-c2c(Cl)cc3c(N4CCC5CCC(C4)N5)nc(OC[C@@H]4CCCN4C)nc3c2F)c1C(F)(F)F (stereo partly drawn) [Example 2-1, 6-(6-chloro-4-{3,9-diazabicyclo[4.2.1]nonan-3-yl}-8-fluoro-2-{[(2S)-1-methylpyrrolidin-2-yl]methoxy}quinazolin-7-yl)-4-methyl-5-(trifluoromethyl)pyridin-2-amine] | 0.04 µM | 6.19 µM
16 | CCc1cccc2cc(O)cc(-c3c(Cl)cc4c(N5CC[C@H]6CC[C@@H](C5)N6)nc(OC[C@]56CCCN5C[C@@H](F)C6)nc4c3F)c12 (single isomer, unassigned) [Example 8-4] | 7.7 µM | 37.8 µM
